In patent US6391900B1, “Cytotoxic tris(oxazole)-containing macrolides” (Instituto Biomar S.A., priority 1998, dated 2002):

Key:
[1] = tested on: MEL-28 (monolayer culture of a human melanoma); experiment: in vitro cytotoxic assay, MEL-28 cells; type: cell-based; conditions: SK-MEL-28, 72 h, three days of incubation, Crystal Violet staining, approximate IC50
Experimental: (§1) Cells were maintained in logarithmic phase of growth in Eagle's Minimum Essential Medium, with Earle's Balanced Salts, with 2.0 mM L-glutamine, with non-essential amino acids, without sodium bicarbonate EMEM/neaa); supplemented with 10% Fetal Calf Serum (FCS), 10^−2 M sodium bicarbonate and 0.1 g/l penicillin-G+streptomycin sulfate.
(§2) A screening procedure has been carried out to determine and compare the antitumor activity of these compounds, using an adapted form of the method described by Bergeron et al. (Reference 5). The antitumor cells employed were P-388 (suspension culture of a lymphoid neoplasm from DBA/2 mouse), A-549 (monolayer culture of a human lung carcinoma), HT-29 (monolayer culture of a human colon carcinoma) and MEL-28 (monolayer culture of a human melanoma).
(§3) A-549, HT-29 and MEL-28 cells were seeded into 16 mm wells at 2×10^4 cells per well in 1 ml aliquots of MEM 10FCS containing the indicated concentration of drug. A separate set of cultures without drug was seeded as control growth to ensure that cells remained in exponential phase of growth. All determinations were carried out in duplicate. After three days of incubation at 37° C., 10% CO2 in a 98% humid atmosphere, the wells were stained with 0.1% Crystal Violet. An approximately IC50 was determined by comparing the growth in wells with drug to the growth in wells control.

[2] = tested on: A-549 (monolayer culture of a human lung carcinoma); experiment: in vitro cytotoxic assay, A-549 cells; type: cell-based; conditions: A549, 72 h, three days of incubation, Crystal Violet staining, approximate IC50
Experimental: as §1, §2, §3

[3] = tested on: solid tumors like A-549, HT-29 and MEL-28; experiment: in vitro antitumor selectivity across the cytotoxicity panel; type: cell-based, human; conditions: solid tumor lines A-549, HT-29, MEL-28 compared with P-388
Experimental: as §2
as §3, with “[…]” for “A-549, HT-29 and MEL-28”, “1×10^4 sells” for “2×10^4 cells”, “SFCS” for “10FCS”, “an” for “the wells were stained with 0.1% Crystal Violet. An”
as §3, with “All determinations were carried out in duplicate. After three days of incubation at 37° C., 10% CO2 in a 98% humid atmosphere, the wells were stained with 0.1% Crystal Violet.” left out

[4] = tested on: P-388 (suspension culture of a lymphoid neoplasm from DBA/2 mouse); experiment: in vitro cytotoxic assay, P-388 cells; type: cell-based; conditions: P388, 72 h, three days of incubation, approximate IC50 by growth vs control wells
Experimental: as §1, §2
as §3, with “[…]” for “A-549, HT-29 and MEL-28”, “1×10^4 sells” for “2×10^4 cells”, “SFCS” for “10FCS”, “an” for “the wells were stained with 0.1% Crystal Violet. An”

[5] = tested on: HT-29 (monolayer culture of a human colon carcinoma); experiment: in vitro cytotoxic assay, HT-29 cells; type: cell-based; conditions: 72 h, three days of incubation, Crystal Violet staining, approximate IC50
Experimental: as §1, §2, §3

COC(CC1OC(=O)CC(OC(N)=O)CC(C)CC(O)C(C)C(OC)c2coc(n2)-c2coc(n2)-c2coc(n2)/C=C/CC(OC)C1C)C(C)CCC(=O)C(C)C(OC)C(C)CC=O (centres unmarked) [TH-2]
IC50 [1]: 2 nM | IC50 [2]: 2 nM | in vitro antitumor selectivity for solid tumors [3]: in vitro antitumor selectivity for solid timors | IC50 [4]: 11 nM | IC50 [5]: 2 nM
